Values after ≈ are worked out from the molar mass of the structure shown.
Assay: aqueous solubility of talnetant
Format: physicochemical
Settings: aqueous medium
Text: Typically drugs with low aqueous solubility are absorbed slowly across the walls of the gastrointestinal tract (GIT) due to poor dissolution of the solid in the GIT leading to a small diffusive driving force.

solubility (aqueous buffer, pH 7.0): ~1 µg/mL (≈ 2.61 µM) | solubility (pH 1, simulated gastric fluid): ~30 µg/mL (≈ 78.4 µM)
SMILES: CC[C@H](NC(=O)c1c(O)c(-c2ccccc2)nc2ccccc12)c1ccccc1 [Talnetant, (S)-(−)-N-(α-ethylbenzyl)-3-hydroxy-2-phenylquinoline4-carboxamide]
